Consider four compounds from patent US8178699B2, “Modulators of CCR9 receptor and methods of use thereof” (Pfizer Inc., priority 2008, dated 2012).

pIC50: −log10 of the molar value. Counter-ions that a name gives are not always drawn. Bounds are passed on as bounds.

The target of the experiment is T1, human CCR9 receptor (Homo sapiens, UniProt P51686).
T1 construct: expressed in transfected cells
T1 sequence (P51686 1-369): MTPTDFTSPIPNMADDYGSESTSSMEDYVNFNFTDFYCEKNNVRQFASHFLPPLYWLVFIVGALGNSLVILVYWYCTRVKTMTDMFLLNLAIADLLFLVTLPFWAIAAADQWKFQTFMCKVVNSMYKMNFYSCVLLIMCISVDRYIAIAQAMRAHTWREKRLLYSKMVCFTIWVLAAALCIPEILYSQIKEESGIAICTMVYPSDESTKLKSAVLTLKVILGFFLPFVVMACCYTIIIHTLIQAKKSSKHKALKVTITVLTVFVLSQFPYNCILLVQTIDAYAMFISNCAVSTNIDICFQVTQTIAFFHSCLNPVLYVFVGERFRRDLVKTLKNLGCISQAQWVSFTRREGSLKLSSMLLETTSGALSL
In words: CCR9 FLIPR/FlexStation Assay (inhibition of TECK induced calcium mobilization). The settings on record: CCR9 antagonist activity; TECK induced calcium mobilization in CCR9-Flp-CHO cells stably over expressing human CCR9; rhTECK at EC70; read-out: Binding IC50. The class given is cell-based. The text has this: Exemplary methods are described in US Publication Nos. US2004/0180892 and US2005/0049286, which are incorporated herein by reference. An exemplary assay for determining CCR9 antagonist activity of the compounds provided herein is CCR9 FLIPR/FlexStation Assay. In certain embodiments, the following protocol is used for the assay:
CCR9 FLIPR/FlexStation Assay Protocol
Calcium assay in FLIPR/FlexStation determines inhibitors of TECK induced calcium mobilization in CCR9-Flp-CHO cells that stably over express human CCR9 receptor. CCR9-Flp-CHO cells are seeded at 25,000 cells/well in a clear bottom, black wall 96-well plate (Greiner #655090) one day prior to assay. Cells are grown in a tissue culture incubator at 37° C. with 5% CO2 for 18 to 24 hours.
Wash buffer and dye loading buffer are prepared fresh each time the assay is performed. Wash buffer is prepared according to the following protocol: 20 ml 10×HBSS (Invitrogen Gibco #14065-056), 4 ml 1M HEPES (Sigma H3784), 174 ml sterile deionized water; then add 140 mg probenecid (Sigma P8761) dissolved in 2 ml 1M NaOH (Fisher S318) to solution and pH to 7.4. This wash buffer contains 1×HBSS, 20 mM HEPES and 2.5 mM probenecid. For one 96-well plate, dye loading buffer is prepared as following: 11 ml wash buffer, 44 μl Fluo-4/pluoronic acid mix (prepared from 22 μL aliquot of 2 mM Fluo-4 (Molecular Probes F14202, 1 mg/tube)+22 μl 20% pluronic F-127 (Molecular Probes P3000MP).
Cells are loaded with dye according to the protocol below:
1. Prepare wash buffer with 1×HBSS/HEPES at room temperature
2. Prepare loading buffer (keep in dark)
3. Aspirate culture media and wash with 100 μl wash buffer per well×1
4. Add 100 μl dye loading buffer to each well
5. Incubate at 37° C. for 30 minutes
6. Aspirate loading buffer
7. Wash with 100 μl wash buffer per well×3
8. Add 100 μl wash buffer per well
9. Incubate at 37° C. for 30 minutes
10. Assay plate with FLIPR or FlexStation
10 mM stock compounds in DMSO are prepared and diluted in DMSO to 1 mM. Compounds are diluted in wash buffer to make 8 point series dilutions containing same final concentration of DMSO (1%). Compounds are tested in duplicate wells for each point. Ligand rhTECK (R&D Systems 334-TK) was diluted to 6× of its EC70 with wash buffer. Appropriate amount of 6× ligand is added to each well. Data is analyzed using XLfit3 software to calculate IC50 value of antagonist activity for each compound.
CCR9 antagonist activity of exemplary compounds was determined using CCR9 FLIPR/FlexStation Assay as described in Section 4.4 and is provided in Table 1 below. The IC50 for the compounds are represented as follows: A≦100 nM; B>100-500 nM; C>500 nM.

Regarding `CC(C)(C)c1ccc(S(=O)(=O)Nc2ccsc2C(=O)O)c(-c2ccoc2)c1` [Example 60, 3-[4-tert-butyl-2-(furan-3-yl)-phenylsulfonamido]thiophene-2-carboxylic acid, disodium salt], the pIC50 was 6.30 to 7.00.

For the compound `C=Cc1cc(C(C)(C)C)ccc1S(=O)(=O)Nc1ccsc1C(=O)O` [Example 61, 3-(4-tert-butyl-2-vinylphenylsulfonamido)thiophene-2-carboxylic acid, disodium salt], the pIC50 is at least 7.00.

Consider `Cc1cc(C(C)(C)C)cc(C)c1S(=O)(=O)Nc1ccsc1C(=O)O` [Example 62, 3-(4-tert-butyl-2,6-dimethylphenylsulfonamido)thiophene-2-carboxylic acid, disodium salt], for which the pIC50 is below 6.30.

Turning to `COc1cc(S(=O)(=O)Nc2ccsc2C(=O)O)c(Cl)cc1F` [Example 63, 3-(2-chloro-4-fluoro-5-methoxyphenylsulfonamido)thiophene-2-carboxylic acid, disodium salt], the pIC50 was below 6.30.
